In ChEMBL document CHEMBL1201862, “PubChem BioAssay data set” (2004):
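Cultured in 96-well plates, cells were exposed to test compound for 48 hours across five concentrations. GI50 is the concentration that inhibits growth by half.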 The source made the active and inactive calls. Rule as the data show it: active = GI50 up to about 1.1 µM and inactive = higher.

Columns and labels:
Test in all cases: NCI anticancer screen, dose series, 48 h
SK-MEL-28 = test system: SK-MEL-28
HT-29 = test system: HT-29
UACC-62 = test system: UACC-62
OVCAR-5 = test system: OVCAR-5
M14 = test system: M14
OVCAR-8 = test system: OVCAR-8
COLO 205 = test system: COLO 205
SW-620 = test system: SW-620
TK-10 = test system: TK-10
MDA-MB-231 = test system: MDA-MB-231
MOLT-4 = test system: MOLT-4
HOP-62 = test system: HOP-62
OVCAR-4 = test system: OVCAR-4
OVCAR-3 = test system: OVCAR-3
SR = test system: SR
IGROV-1 = test system: IGROV-1
HCC 2998 = test system: HCC 2998
NCI-H460 = test system: NCI-H460
CCRF-CEM = test system: CCRF-CEM
SNB-75 = test system: SNB-75

Measured: GI50

CC(C)CC1c2[nH]c3ccccc3c2C[C@H]2C(=O)NC(CCC(=O)OC(C)(C)C)C(=O)N12 (stereo partly specified)
inactive: SK-MEL-28 52.1 µM | HT-29 21.1 µM | UACC-62 30.5 µM | OVCAR-5 34.3 µM | M14 36.7 µM | OVCAR-8 39.3 µM | COLO 205 20.6 µM | SW-620 45 µM | TK-10 25.8 µM | MDA-MB-231 27.2 µM | MOLT-4 22.6 µM | HOP-62 23 µM | OVCAR-4 37.3 µM | OVCAR-3 16.8 µM | SR 22 µM | IGROV-1 33.5 µM

CCOC(CI)O[C@@H]1C=C[C@H](OC(C)=O)C1 (stereo partly specified)
inactive: SK-MEL-28 > 100 µM | HT-29 > 100 µM | UACC-62 > 100 µM | OVCAR-5 > 100 µM | M14 > 100 µM | HCC 2998 > 100 µM | OVCAR-8 > 100 µM | NCI-H460 > 100 µM | COLO 205 > 100 µM | SW-620 > 100 µM | CCRF-CEM > 100 µM | MDA-MB-231 > 100 µM | MOLT-4 > 100 µM | HOP-62 84.7 µM | OVCAR-4 > 100 µM | OVCAR-3 33.7 µM | SNB-75 > 100 µM

C[C@H]1/C(=C/C(=O)OCCN(C)C)CC[C@H]2[C@H]1C(=O)C[C@H]1C(C)(C)[C@@H](O)CC[C@]21C
inactive: SK-MEL-28 > 100 µM | HT-29 > 100 µM | UACC-62 > 100 µM | OVCAR-5 > 100 µM | M14 > 100 µM | HCC 2998 > 100 µM | OVCAR-8 > 100 µM | NCI-H460 > 100 µM | COLO 205 > 100 µM | SW-620 > 100 µM | CCRF-CEM > 100 µM | TK-10 > 100 µM | MDA-MB-231 > 100 µM | MOLT-4 > 100 µM | HOP-62 > 100 µM | OVCAR-4 > 100 µM | OVCAR-3 > 100 µM | SR > 100 µM | IGROV-1 > 100 µM

CC1=C(C)C(=O)C2=C(OCCO2)C1=O
inactive: SK-MEL-28 16.1 µM | HT-29 20 µM | OVCAR-5 19.7 µM | M14 19.3 µM | HCC 2998 19.5 µM | OVCAR-8 3.08 µM | NCI-H460 20.6 µM | COLO 205 17.6 µM | SW-620 20.6 µM | CCRF-CEM 3.73 µM | TK-10 16.9 µM | MDA-MB-231 4.47 µM | MOLT-4 2.55 µM | HOP-62 17.7 µM | OVCAR-3 10.3 µM | SR 4.09 µM | IGROV-1 2.11 µM

CC1N=C(c2ccccc2)OC1=O (stereo unspecified)
inactive: SK-MEL-28 > 100 µM | HT-29 > 100 µM | UACC-62 > 100 µM | OVCAR-5 > 100 µM | M14 > 100 µM | OVCAR-8 > 100 µM | NCI-H460 > 100 µM | COLO 205 > 100 µM | SW-620 > 100 µM | CCRF-CEM > 100 µM | TK-10 > 100 µM | MDA-MB-231 > 100 µM | MOLT-4 > 100 µM | HOP-62 > 100 µM | OVCAR-4 > 100 µM | OVCAR-3 > 100 µM | SNB-75 > 100 µM | IGROV-1 > 100 µM

COc1ccc(/C=C2\S/C(=N/Nc3nc(-c4ccccc4)cs3)NC2=O)cc1OC
inactive: SK-MEL-28 32.7 µM | UACC-62 23.6 µM | OVCAR-5 23.4 µM | M14 32.4 µM | HCC 2998 22.4 µM | OVCAR-8 21 µM | NCI-H460 23 µM | COLO 205 35.6 µM | SW-620 30.3 µM | CCRF-CEM 4.1 µM | TK-10 20.5 µM | MDA-MB-231 21.9 µM | MOLT-4 3.07 µM | HOP-62 22.1 µM | OVCAR-4 27.2 µM | OVCAR-3 15.9 µM | SNB-75 22.8 µM | IGROV-1 12.6 µM

O=C(Nc1ccccc1Cl)c1cc(S(=O)(=O)Nc2n[nH]c(=O)n2-c2ccccc2)c(S)cc1Cl
inactive: SK-MEL-28 > 100 µM | HT-29 > 100 µM | UACC-62 > 100 µM | OVCAR-5 > 100 µM | M14 > 100 µM | HCC 2998 > 100 µM | OVCAR-8 > 100 µM | NCI-H460 > 100 µM | COLO 205 > 100 µM | SW-620 > 100 µM | CCRF-CEM > 100 µM | MDA-MB-231 > 100 µM | MOLT-4 > 100 µM | HOP-62 > 100 µM | OVCAR-4 > 100 µM | OVCAR-3 > 100 µM | SR > 100 µM | IGROV-1 > 100 µM

O=C(Cn1c(C(=O)/C=C/c2ccc(Cl)c(Cl)c2)nc2ccccc21)c1ccccc1
inactive: SK-MEL-28 35.3 µM | HT-29 16 µM | UACC-62 31 µM | OVCAR-5 17.6 µM | M14 23.2 µM | HCC 2998 17.8 µM | NCI-H460 16.2 µM | COLO 205 17.8 µM | SW-620 33.3 µM | CCRF-CEM 6.92 µM | TK-10 27.9 µM | MDA-MB-231 22.7 µM | MOLT-4 27.9 µM | HOP-62 26 µM | OVCAR-4 25.6 µM | OVCAR-3 15.2 µM | SR 25 µM | IGROV-1 22.6 µM
